According to PubChem BioAssay (NCI):
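Five concentrations, 48 hours, 96-well plates. At the TGI there is no net growth.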

How the values were obtained:
Assay in all cases: NCI anticancer screen, dose series, 48 h
786-0 renal = tested on: 786-0 renal
A498 renal = tested on: A498 renal
A549 NSCLC = tested on: A549 NSCLC
ACHN renal = tested on: ACHN renal
CAKI-1 renal = tested on: CAKI-1 renal
CCRF-CEM leukemia = tested on: CCRF-CEM leukemia
COLO 205 colon = tested on: COLO 205 colon
DLD-1 colon = tested on: DLD-1 colon
DMS 273 small cell lung = tested on: DMS 273 small cell lung
EKVX NSCLC = tested on: EKVX NSCLC
HCC-2998 colon = tested on: HCC-2998 colon
HCT-116 colon = tested on: HCT-116 colon
HL-60(TB) leukemia = tested on: HL-60(TB) leukemia
HOP-18 NSCLC = tested on: HOP-18 NSCLC
HOP-62 NSCLC = tested on: HOP-62 NSCLC
HT29 colon = tested on: HT29 colon
IGROV1 ovarian = tested on: IGROV1 ovarian
K-562 leukemia = tested on: K-562 leukemia
KM12 colon = tested on: KM12 colon
KM20L2 colon = tested on: KM20L2 colon
LOX IMVI melanoma = tested on: LOX IMVI melanoma
LXFL 529 NSCLC = tested on: LXFL 529 NSCLC
M14 melanoma = tested on: M14 melanoma
M19-MEL melanoma = tested on: M19-MEL melanoma
MALME-3M melanoma = tested on: MALME-3M melanoma
MOLT-4 leukemia = tested on: MOLT-4 leukemia
NCI-H226 lung = tested on: NCI-H226 lung
NCI-H23 lung = tested on: NCI-H23 lung
NCI-H460 lung = tested on: NCI-H460 lung
NCI-H522 lung = tested on: NCI-H522 lung
OVCAR-3 ovarian = tested on: OVCAR-3 ovarian
OVCAR-4 ovarian = tested on: OVCAR-4 ovarian
OVCAR-8 ovarian = tested on: OVCAR-8 ovarian
RXF 393 renal = tested on: RXF 393 renal
RXF-631 renal = tested on: RXF-631 renal
SF-268 CNS = tested on: SF-268 CNS
SF-295 CNS = tested on: SF-295 CNS
SF-539 CNS = tested on: SF-539 CNS
SK-MEL-2 melanoma = tested on: SK-MEL-2 melanoma
SK-MEL-28 melanoma = tested on: SK-MEL-28 melanoma
SK-MEL-5 melanoma = tested on: SK-MEL-5 melanoma
SK-OV-3 ovarian = tested on: SK-OV-3 ovarian
SN12C renal = tested on: SN12C renal
SNB-19 CNS = tested on: SNB-19 CNS
SNB-75 CNS = tested on: SNB-75 CNS
SNB-78 CNS = tested on: SNB-78 CNS
SR leukemia = tested on: SR leukemia
SW-620 colon = tested on: SW-620 colon
TK-10 renal = tested on: TK-10 renal
U251 CNS = tested on: U251 CNS
UACC-257 melanoma = tested on: UACC-257 melanoma
UACC-62 melanoma = tested on: UACC-62 melanoma
UO-31 renal = tested on: UO-31 renal
XF 498 CNS = tested on: XF 498 CNS
HCT-15 colon = tested on: HCT-15 colon
HOP-92 NSCLC = tested on: HOP-92 NSCLC
OVCAR-5 ovarian = tested on: OVCAR-5 ovarian
RPMI-8226 leukemia = tested on: RPMI-8226 leukemia

Measured: TGI

Cc1cccc(C(C)(C)C)c1NC(=O)CCl
not listed: HCT-15 colon | HOP-92 NSCLC | OVCAR-5 ovarian | RPMI-8226 leukemia
> 100 µM: all other assays above

O=[N+]([O-])c1ccc(C2N3CCCCC3[C@H]3CCCCN23)cc1 (stereo partly specified)
not listed: HCC-2998 colon
> 100 µM: all other assays above
